Legend:
[1] = target: T1, porcine brain α/β-tubulin (Sus scrofa, UniProt P02550+P02554); assay: In vitro MT polymerization assay (glutamate, paclitaxel or Tau stimulated); format: biochemical; conditions: absence of γ-tubulin; absorbance at 350 nm, 37 °C
T1 construct: α/β-Tubulin was purified from porcine brain; from tissue; host or cells: porcine brain
Method: For glutamate-stimulated MT polymerization, 1 mg ml^−1 porcine brain α/β-tubulin was mixed with glutamate (final concentration 1 M) and GTP (final concentration 1 mM) in RB buffer on ice. For paclitaxel-stimulated MT polymerization, 1 mg ml^−1 porcine brain α/β-tubulin was mixed with paclitaxel (final concentration 10 μM) and GTP (final concentration 1 mM) in RB buffer on ice. For recombinant Tau protein-stimulated MT polymerization, 1 mg ml^−1 α/β-tubulin purified from porcine brain and Tau protein were mixed with GTP (final concentration 1 mM) in RB buffer on ice. For γ-TuSC-stimulated MT polymerization, γ-TuSC was mixed with GTP (final concentration 1 mM). One of the compounds and α/β-tubulin were then added. Samples were transferred into cuvettes. Tubulin polymerization was monitored using the absorbance at 350 nm at 37 °C using a thermostatic spectrophotometer (Beckman Coulter).

HeLa cells [2] = assay: MT nucleation (regrowth) assay, HeLa cells; format: cell-based, human; conditions: 30 μM, MT regrowth 1 min, EB1 area
Method: HeLa and U2OS cells were cultured in DMEM+GlutaMAX (Gibco) supplemented with 10% fetal bovine serum (FBS), 100 U ml^−1 penicillin, 100 μg ml^−1 streptomycin and 1 mM sodium pyruvate in a humidified atmosphere containing 5% CO2. RPE-1 cells were cultured in DMEM/F-12 (Gibco) supplemented with 10% FBS, 2 mM L-glutamine, 100 U ml^−1 penicillin, 100 μg ml^−1 streptomycin, 1 mM sodium pyruvate containing 10% FBS in a humidified atmosphere containing 5% CO2.
To depolymerize MTs, interphase cells were treated with 10 μM of nocodazole for 3 h, washed with cold medium and incubated on ice for 1 h. Mitotic cells were treated with 10 μM of STLC for 6 h, washed with cold medium and incubated on ice for 1 h. Subsequently, both cells were incubated in medium containing 1% DMSO or 30 μM of gatastatin for 10 min on ice. Cells were then put in warmed medium containing either 1% DMSO or 30 μM of gatastatin and were incubated at 37 °C (interphase cells) or 20 °C (mitotic cells) for 1 min. The cells were immediately fixed with cold MeOH (−20 °C).
After blocking with PBS containing 0.5% bovine serum albumin, cells were incubated with anti-EB1 antibody (1:500 dilution, Abcam, Cat# ab53358), anti-α-tubulin antibody (1:500 dilution, Sigma, Cat# T9026) and anti-pericentrin antibody (1:2,000 dilution, Abcam, Cat# ab4448). […]

HeLa cells [3] = assay: Spindle length of MG132-arrested metaphase cells; format: cell-based, human; conditions: 30 μM, 2 h in the presence of MG132, HeLa
Method: Exponentially growing HeLa cells were treated with 30 μM of gatastatin for 9 h. Cells were fixed with cold MeOH (−20 °C). Immunostaining was performed as described above using anti-α-tubulin (1:250 dilution, Santa Cruz, Cat# sc-32293) and anti-pericentrin (1:250 dilution, Abcam, Cat# ab4448) antibodies. After staining with Alexa^488-conjugated anti-mouse IgG (1:2,000 dilution, Invitrogen, Cat#A11001) and Alexa^568-conjugated anti-rabbit IgG (1:2,000 dilution, Invitrogen, Cat#A11011), cells were washed four times with PBS and mounted with PBS containing 0.1 μg ml^−1 DAPI. Spindle structure was observed under a Leica LAS AF 6000 fluorescence microscope (Leica Microsystems). Images of 41 sections at 0.251-μm intervals were collected. The position of the two pericentrin signals of mitotic cells was analysed using the ImageJ software, and then their distance was calculated.
For analysis of the length of the bipolar spindle in MG132-treated cells, HeLa cells were arrested at prometaphase with 10 μM of STLC for 15 h, followed by STLC removal by washing the cells with the medium three times to remove STLC. […]
Immunostaining was performed as described above using anti-α-tubulin (1:250 dilution, Santa Cruz, Cat# sc-32293) and anti-pericentrin (1:250 dilution, Abcam, Cat# ab4448) antibodies. Spindle structure was observed under a Leica LAS AF 6000 fluorescence microscope (Leica Microsystems). […]

T1 sequence (P02550 whole entry): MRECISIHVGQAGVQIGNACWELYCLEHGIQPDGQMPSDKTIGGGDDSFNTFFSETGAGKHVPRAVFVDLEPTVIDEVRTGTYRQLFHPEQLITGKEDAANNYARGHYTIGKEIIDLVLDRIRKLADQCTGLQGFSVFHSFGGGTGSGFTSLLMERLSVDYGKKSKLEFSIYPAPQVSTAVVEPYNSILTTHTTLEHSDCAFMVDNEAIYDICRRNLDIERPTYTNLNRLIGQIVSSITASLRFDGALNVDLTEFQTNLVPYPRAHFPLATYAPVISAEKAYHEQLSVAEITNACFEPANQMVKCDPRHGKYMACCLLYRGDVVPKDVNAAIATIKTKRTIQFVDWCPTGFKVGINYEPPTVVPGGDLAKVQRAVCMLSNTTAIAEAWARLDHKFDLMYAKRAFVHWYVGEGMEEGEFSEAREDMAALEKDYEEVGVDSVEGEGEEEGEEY
T1 sequence (P02554 whole entry): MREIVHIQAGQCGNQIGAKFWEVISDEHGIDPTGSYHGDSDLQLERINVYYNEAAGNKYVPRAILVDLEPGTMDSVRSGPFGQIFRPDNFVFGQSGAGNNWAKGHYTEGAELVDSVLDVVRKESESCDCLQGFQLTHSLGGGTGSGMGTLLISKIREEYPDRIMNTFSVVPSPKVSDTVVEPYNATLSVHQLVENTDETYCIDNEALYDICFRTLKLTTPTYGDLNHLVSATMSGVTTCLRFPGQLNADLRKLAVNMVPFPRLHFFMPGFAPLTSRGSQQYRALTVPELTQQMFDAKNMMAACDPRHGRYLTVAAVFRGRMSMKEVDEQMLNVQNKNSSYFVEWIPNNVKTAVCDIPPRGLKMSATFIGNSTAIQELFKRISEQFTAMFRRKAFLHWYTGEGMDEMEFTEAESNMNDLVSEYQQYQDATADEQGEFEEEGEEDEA

Compound: COc1cc2c(=O)c(-c3cc(OC)c4c(c3OC)OCO4)coc2cc1OCc1ccccc1 [Gatastatin, O^7-demethylbenzyl AG1]
- Effect on MT polymerization in vitro induced by glutamate, paclitaxel or recombinant Tau protein [1]: failed to impair MT polymerization in vitro
- Effect on MT nucleation activity of interphase and mitotic centrosomes (HeLa cells [2]): inhibited MT nucleation activity
- Reduction of the length of the metaphase spindle compared with the control (HeLa cells [3]): 22%
